This is an account of results in EP3365068B1, “COSMETIC COMPOSITIONS FOR SKIN WHITENING” (Lumene Oy, priority 2015, dated 2017).

Test [1] concerns normal human epidermal melanocytes (NHEM). The test can be described thus: Melanin synthesis under stimulated condition (L-tyrosine-induced, OD at 405 nm). Type of test: cell-based. The settings on record: tested at 5 µg/ml, L-tyrosine 1 mM, 10 days. On the procedure:
More specifically, the effect of the compound was evaluated on the following parameters: • 1. […] Melanin synthesis in NHEM stimulated by […]. • 3. […] For the tyrosinase activity assay the following concentrations were tested: 0.33, 1, 3, 9, 27 and 81 mg/ml (the spray-dried cloudberry powder was dissolved in assay buffer). For the melanin synthesis and melanocyte dendricity assay the following concentrations were tested: 0.33, 1 and 3 mg/ml (the spray-dried cloudberry powder was dissolved in culture medium). Melanocytes were seeded in 24-well plates and cultured in their culture medium for 24 hours. The medium was then replaced by culture medium containing or not (stimulated control) the inducer (L-Tyrosine) and the test compound of the reference (lipoic acid at 5 µg/ml). […] In parallel, a non-stimulated control was performed. Each experimental condition was performed in n=3. At the end of incubation, melanin was extracted by cell lysis using a 0.5 N NaOH solution. The optical density (OD) of each experimental point was measured at 405 nm and melanin quantity was calculated using melanin standards. Results were expressed in µg/ml of melanin and in percentage of inhibition compared to control.

Test [2] deals with co-culture of NHEM and normal human epidermal keratinocytes (NHEK). The test can be described thus: Melanocyte dendricity under stimulated condition (IBMX, immunofluorescent labeling and image analysis). Type of test: cell-based. The settings on record: tested at 0.025 µg/ml, IBMX 200 µM, 72 hours, read-out: % of inhibition of the formation of dendrites by the melanocytes. On the procedure:
Two further assays were carried out to evaluate the whitening effect of the powder, i.e. melanin synthesis in NHEM stimulated by […] and melanocyte dendricity in a co-culture of NHEM and normal human epidermal keratinocytes (NHEK) in presence of IBMX (a melanocyte dendricity stimulating agent) using in situ immunofluorescent labeling and image analysis. As reference substances in these tests lipoic acid and vincristine, respectively, were used.
More specifically, the effect of the compound was evaluated on the following parameters: • 1. Activity of tyrosinase enzyme extracted from NHEM (acellular assay). • 2. Melanin synthesis in NHEM stimulated by […]. • 3. Melanocyte dendricity in a co-culture of NHEM and normal human epidermal keratinocytes (NHEK) in presence of IBMX (a melanocyte dendricity stimulating agent) using in situ immunofluorescent labeling and image analysis.
For the tyrosinase activity assay the following concentrations were tested: 0.33, 1, 3, 9, 27 and 81 mg/ml (the spray-dried cloudberry powder was dissolved in assay buffer). […]
Images were acquired of the wells (10 photos per well). The labeling was quantified by the measurement of the dendrite fluorescence area normalized to the total number of melanocytes.

Molecules are shown by their SMILES.

Turning to `O=C(O)CCCC[C@@H]1CCSS1` (racemic) [lipoic acid], in test [1], the “% of inhibition of L-tyrosine-induced melanin synthesis” value worked out at 108%. Turning to `CC[C@]1(O)C[C@H]2CN(CCc3c([nH]c4ccccc34)[C@@](C(=O)OC)(c3cc4c(cc3OC)N(C=O)[C@H]3[C@@](O)(C(=O)OC)[C@H](OC(C)=O)[C@]5(CC)C=CCN6CC[C@]43[C@@H]65)C2)C1` [vincristine], in test [2], the inhibition (commonly the drop in the measured response relative to a control, in per cent) at 0.025 µg/mL was 175%.
